Consider 24 compounds from patent US20240376100A1 (Redona Therapeutics, Inc., priority 2021, published 2024).

Counter-ions that a name gives are not always drawn.

PAPD5 enzyme, sequence (Q8NDF8 whole entry): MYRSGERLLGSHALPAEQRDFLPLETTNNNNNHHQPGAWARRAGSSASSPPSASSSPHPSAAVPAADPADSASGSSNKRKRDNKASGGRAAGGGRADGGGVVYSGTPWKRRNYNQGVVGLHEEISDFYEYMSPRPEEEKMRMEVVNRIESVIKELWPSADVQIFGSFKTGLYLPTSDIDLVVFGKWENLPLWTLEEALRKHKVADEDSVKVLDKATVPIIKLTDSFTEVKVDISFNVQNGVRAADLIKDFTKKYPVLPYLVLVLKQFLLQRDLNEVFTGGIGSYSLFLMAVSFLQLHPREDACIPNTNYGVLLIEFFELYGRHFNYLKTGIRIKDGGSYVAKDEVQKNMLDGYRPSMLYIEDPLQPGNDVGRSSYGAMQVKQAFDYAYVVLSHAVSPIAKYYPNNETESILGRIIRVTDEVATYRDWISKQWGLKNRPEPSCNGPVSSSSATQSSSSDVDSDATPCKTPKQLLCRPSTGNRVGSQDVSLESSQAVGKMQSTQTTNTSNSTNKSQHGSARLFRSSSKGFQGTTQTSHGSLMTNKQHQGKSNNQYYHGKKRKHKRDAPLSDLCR

In the experiment the target is PAPD5 enzyme (Homo sapiens, UniProt Q8NDF8). As to the kind of experiment: PAPD5 assay (AMP incorporation onto 3'-terminus of RNA substrate, fluorescence quench). Format: biochemical. The conditions noted are these: PAPD5 protein 0.3 nM, ATP 50 μM, 30 minutes preincubation, room temperature; read-out: Potency PAPD5 IC50. How it is done:
The purpose of the PAPD5 assay is to determine compound potency against PAPD5 enzyme through the measurement of IC50. Compound inhibition is measured as a function of AMP incorporation onto the 3′-terminus of an RNA substrate in the presence of active PAPD5, ATP, and inhibitor. The PAPD5 assay was done in a black, non-binding, 384 well plate (Corning #3575). All steps were performed at room temperature. For a typical assay, a 40 ul aliquot of assay buffer (50 mM HEPES pH 7.3, 20 mM KCl, 10 mM MgCl2, 10 mMM DTT, 0.01% Triton X-100, 40 U/ml RNAsin (Promega)) containing PAPD5 protein (final 10 concentration: 0.3 nM) and ATP (final concentration 50 μM) was added to each well. Next, 1 ul of compound in 100% DMSO is transferred from a compound dilution plate in which the compound is serially diluted. The plate was placed on a plate shaker for 30 seconds to produce mixing, then incubated for 30 minutes. Next, 10 ul of a 5× mix of RNA substrate (5′-fluorescein-AUAGAG-3′ (IDT)) and a DNA oligonucleotide that is complementary to the AMP modified RNA product (5′-TCTCTATT-3′-TAMRA, wherein the first two nucleotides are locked nucleic acids (IDT)) was added (final concentrations: 5 nM and 20 nM, respectively). The plate was placed on a plate shaker for 30 seconds to produce mixing then immediately placed in a Biotek Cytation 5 plate reader, and the time-dependent decrease in fluorescein fluorescence resulting from annealing of the TAMRA labeled quenching probe was recorded, using the kinetics mode of the reader (typical run time is 90 minutes). Reaction rates were obtained using linear fits to the early portion of progress curves. IC50 values were calculated using a four-parameter fit with 100% enzyme activity determined from the DMSO control and 0% activity from control samples lacking UTP.
“+” represents an IC50 value that is greater than 50 PM; “++” represents an IC50 value that is greater than 10 μM and equal to or less than 50 μM; “+++” represents an IC50 value that is greater than 1 μM and equal to or less than 10 μM; and “++++” represents an IC50 value that is equal to or less than 1 μM.
A word on the IC50: it is the concentration that inhibits the measured activity by half. Take `O=C(O)c1cn(-c2cnc(N3CCC3)cn2)c2cc(N3Cc4cccnc4C3)c(Cl)cc2c1=O` [Example 201, 1-(5-(azetidin-1-yl)pyrazin-2-yl)-6-chloro-7-(5,7-dihydro-6H-pyrrolo[3,4-b]pyridin-6-yl)-4-oxo-1,4-dihydroquinoline-3-carboxylic acid]: the IC50 is not above 1 µM.

Consider `O=C(O)c1cn(-c2ccc(O)cc2F)c2cc(N3Cc4cccnc4C3)c(F)cc2c1=O` [Example 29, 7-(5,7-dihydro-6H-pyrrolo[3,4-b]pyridin-6-yl)-6-fluoro-1-(2-fluoro-4-hydroxyphenyl)-4-oxo-1,4-dihydroquinoline-3-carboxylic acid], for which the IC50 was not above 1 µM. As to `Cc1nc(NC(=O)OC(C)(C)C)ccc1-n1cc(C(=O)O)c(=O)c2cc(Cl)c(N3Cc4cccnc4C3)cc21` [Example 46, 1-(6-((tert-butoxycarbonyl)amino)-2-methylpyridin-3-yl)-6-chloro-7-(5,7-dihydro-6H-pyrrolo[3,4-b]pyridin-6-yl)-4-oxo-1,4-dihydroquinoline-3-carboxylic acid], the half-inhibitory concentration (IC50) is not above 1 µM.

As for `O=C(O)c1cn(Cc2ccncc2)c2nc(N3Cc4cccnc4C3)c(Cl)cc2c1=O` [Example 66, 6-chloro-7-(5,7-dihydro-6H-pyrrolo[3,4-b]pyridin-6-yl)-4-oxo-1-(pyridin-4-ylmethyl)-1,4-dihydro-1,8-naphthyridine-3-carboxylic acid], the IC50 is not above 1 µM. Under `Cc1cc(N)ncc1-n1cc(C(=O)O)c(=O)c2cc(Cl)c(N3CCc4ccncc4C3)nc21` [Example 185, 1-(6-amino-4-methylpyridin-3-yl)-6-chloro-7-(3,4-dihydro-2,7-naphthyridin-2(1H)-yl)-4-oxo-1,4-dihydro-1,8-naphthyridine-3-carboxylic acid] stands not above 1 µM; under `N#Cc1cc2c(=O)c(C(=O)O)cn(-c3ccc(O)c(F)c3)c2cc1N1Cc2cccnc2C1` [Example 37, 6-cyano-7-(5,7-dihydro-6H-pyrrolo[3,4-b]pyridin-6-yl)-1-(3-fluoro-4-hydroxyphenyl)-4-oxo-1,4-dihydroquinoline-3-carboxylic acid], not above 1 µM; under `CN(C)C(=O)N1CCC(n2cc(C(=O)O)c(=O)c3cc(Cl)c(N4Cc5cccnc5C4)cc32)CC1` [Example 130, 6-chloro-7-(5,7-dihydro-6H-pyrrolo[3,4-b]pyridin-6-yl)-1-(1-(dimethylcarbamoyl)piperidin-4-yl)-4-oxo-1,4-dihydroquinoline-3-carboxylic acid], not above 1 µM. Consider `Cc1cc(N)ncc1-n1cc(C(=O)O)c(=O)c2cc(Cl)c(N3Cc4cccnc4C3)nc21` [Example 78, 1-(6-amino-4-methylpyridin-3-yl)-6-chloro-7-(5,7-dihydro-6H-pyrrolo[3,4-b]pyridin-6-yl)-4-oxo-1,4-dihydro-1,8-naphthyridine-3-carboxylic acid TFA salt], for which the IC50 is not above 1 µM. Then `Cc1cc(NCCN2CCCCC2)ncc1-n1cc(C(=O)O)c(=O)c2cc(Cl)c(N3Cc4cccnc4C3)nc21` [Example 172, 6-chloro-7-(5,7-dihydro-6H-pyrrolo[3,4-b]pyridin-6-yl)-1-(4-methyl-6-((2-(piperidin-1-yl)ethyl)amino)pyridin-3-yl)-4-oxo-1,4-dihydro-1,8-naphthyridine-3-carboxylic acid], with not above 1 µM; and `Cc1cc(NS(C)(=O)=O)ncc1-n1cc(C(=O)O)c(=O)c2cc(Cl)c(N3Cc4cccnc4C3)nc21` [Example 200, 6-chloro-7-(5,7-dihydro-6H-pyrrolo[3,4-b]pyridin-6-yl)-1-(4-methyl-6-(methylsulfonamido)pyridin-3-yl)-4-oxo-1,4-dihydro-1,8-naphthyridine-3-carboxylic acid], with not above 1 µM; and `Cc1cc(N)ncc1-n1cc(C(=O)O)c(=O)c2cc(Cl)c(-n3cccn3)nc21` [Example 153, 1-(6-amino-4-methylpyridin-3-yl)-6-chloro-4-oxo-7-(1H-pyrazol-1-yl)-1,4-dihydro-1,8-naphthyridine-3-carboxylic acid], with not above 1 µM. Then `CNc1cc(C)c(-n2cc(C(=O)O)c(=O)c3cc(F)c(N4Cc5cccnc5C4)cc32)cn1` [Example 87, 7-(5,7-dihydro-6H-pyrrolo[3,4-b]pyridin-6-yl)-6-fluoro-1-(4-methyl-6-(methylamino)pyridin-3-yl)-4-oxo-1,4-dihydroquinoline-3-carboxylic acid], with not above 1 µM. For `Cc1cc(N)ncc1-n1cc(C(=O)O)c(=O)c2cc(F)c(N3Cc4cccnc4C3)nc21` [Example 77, 1-(6-amino-4-methylpyridin-3-yl)-7-(5,7-dihydro-6H-pyrrolo[3,4-b]pyridin-6-yl)-6-fluoro-4-oxo-1,4-dihydro-1,8-naphthyridine-3-carboxylic acid TFA salt], the IC50 was not above 1 µM.

On to `CS(=O)(=O)Nc1ccc(-n2cc(C(=O)O)c(=O)c3cc(C#N)c(N4Cc5cccnc5C4)cc32)c(F)c1` [Example 57, 6-cyano-7-(5,7-dihydro-6H-pyrrolo[3,4-b]pyridin-6-yl)-1-(2-fluoro-4-(methylsulfonamido)phenyl)-4-oxo-1,4-dihydroquinoline-3-carboxylic acid], for which the IC50 is not above 1 µM. For the compound `COc1cnc(-n2cc(C(=O)O)c(=O)c3cc(C#N)c(N4Cc5cccnc5C4)cc32)cn1` [Example 54, 6-cyano-7-(5,7-dihydro-6H-pyrrolo[3,4-b]pyridin-6-yl)-1-(5-methoxypyrazin-2-yl)-4-oxo-1,4-dihydro quinoline-3-carboxylic acid], the IC50 was not above 1 µM.

On to `O=C(O)c1cn(Cc2ccccc2Cl)c2nc(N3Cc4cccnc4C3)c(Cl)cc2c1=O` [Example 69, 6-chloro-1-(2-chlorobenzyl)-7-(5,7-dihydro-6H-pyrrolo[3,4-b]pyridin-6-yl)-4-oxo-1,4-dihydro-1,8-naphthyridine-3-carboxylic acid], for which the IC50 was not above 1 µM. With `O=C(O)c1cn(-c2ccc(O)cc2)c2cc(N3Cc4ccncc4C3)c(F)cc2c1=O` [Example 19, 7-(1,3-dihydro-2H-pyrrolo[3,4-c]pyridin-2-yl)-6-fluoro-1-(4-hydroxyphenyl)-4-oxo-1,4-dihydroquinoline-3-carboxylic acid], the half-inhibitory concentration (IC50) is not above 1 µM.

With `Cc1cc(N)ncc1-n1cc(C(=O)O)c(=O)c2cc(Cl)c(N3Cc4ccncc4C3)nc21` [Example 159, 1-(6-amino-4-methylpyridin-3-yl)-6-chloro-7-(1,3-dihydro-2H-pyrrolo[3,4-c]pyridin-2-yl)-4-oxo-1,4-dihydro-1,8-naphthyridine-3-carboxylic acid], the IC50 was not above 1 µM.

For `CN(CCO)c1ccn(-c2nc3c(cc2Cl)c(=O)c(C(=O)O)cn3-c2ccc(N)nc2)n1` [Example 93, 1-(6-aminopyridin-3-yl)-6-chloro-7-(3-((2-hydroxyethyl)(methyl)amino)-1H-pyrazol-1-yl)-4-oxo-1,4-dihydro-1,8-naphthyridine-3-carboxylic acid], the IC50 was not above 1 µM. For the compound `COCCN(C)c1cc(C)c(-n2cc(C(=O)O)c(=O)c3cc(Cl)c(N4Cc5cccnc5C4)nc32)cn1` [Example 143, 6-chloro-7-(5,7-dihydro-6H-pyrrolo[3,4-b]pyridin-6-yl)-1-(6-((2-methoxyethyl)(methyl)amino)-4-methylpyridin-3-yl)-4-oxo-1,4-dihydro-1,8-naphthyridine-3-carboxylic acid], the half-inhibitory concentration (IC50) is not above 1 µM. Then `O=C(O)c1cn(C2CCNCC2)c2cc(N3Cc4cccnc4C3)c(Cl)cc2c1=O` [Example 123, 6-chloro-7-(5,7-dihydro-6H-pyrrolo[3,4-b]pyridin-6-yl)-4-oxo-1-(piperidin-4-yl)-1,4-dihydroquinoline-3-carboxylic acid hydrochloride], with not above 1 µM; and `Cc1nc(N)ccc1-n1cc(C(=O)O)c(=O)c2cc(Cl)c(N3Cc4cccnc4C3)cc21` [Example 24, 1-(6-amino-2-methylpyridin-3-yl)-6-chloro-7-(5,7-dihydro-6H-pyrrolo[3,4-b]pyridin-6-yl)-4-oxo-1,4-dihydroquinoline-3-carboxylic acid], with not above 1 µM; and `Cc1ccccc1Cn1cc(C(=O)O)c(=O)c2cc(Cl)c(N3Cc4cccnc4C3)nc21` [Example 70, 6-chloro-7-(5,7-dihydro-6H-pyrrolo[3,4-b]pyridin-6-yl)-1-(2-methylbenzyl)-4-oxo-1,4-dihydro-1,8-naphthyridine-3-carboxylic acid], with not above 1 µM.

`Cc1cc(N)ncc1-n1cc(C(=O)O)c(=O)c2cc(F)c(N3Cc4cccnc4C3)cc21` [Example 79, 1-(6-amino-4-methylpyridin-3-yl)-7-(5,7-dihydro-6H-pyrrolo[3,4-b]pyridin-6-yl)-6-fluoro-4-oxo-1,4-dihydroquinoline-3-carboxylic acid TFA salt]: the half-inhibitory concentration (IC50) is not above 1 µM.
